Experimental findings from US8501911B2, “Methods of reducing inflammation and mucus hypersecretion” (Biomarck Pharmaceuticals, Ltd, priority 1999, dated 2013) are described below.

The subject of one experiment is MARCKS. The experiment in a line: MARCKS phosphorylation in NHBE cells (radiolabeled immunoprecipitation assay). Type of experiment: cell-based, human. As to the method: NHBE cells were labeled with [^32 P]orthophosphate and then exposed to the reagents: (a) Rp-8-Br-PET-cGMP (100 μM); (b) okadaic acid (500 nM); (c) 8-Br-cGMP (1 μM); and (d) PMA (100 nM). MARCKS phosphorylation in response to the treatments was evaluated by immunoprecipitation assay.
To reveal molecular events by which MARCKS links kinase activation to mucin secretion, phosphorylation of MARCKS in response to PKC/PKG activation was investigated in depth, and results are presented as Results-I-4A. […] Once phosphorylated, MARCKS was translocated from the plasma membrane to the cytoplasm. More specifically, the activation of PKC results in MARCKS phosphorylation in NHBE cells. Cells were labeled with [^32 P]orthophosphate for 2 h and then exposed to the stimulatory and/or inhibitory reagents (see below). MARCKS phosphorylation in response to the treatments was evaluated by immunoprecipitation with the following specifics, designated Results-I-4A:
[^32P]phosphate, cells were preincubated for 2 h in phosphate-free Dulbecco's modified Eagle's medium containing 0.2% bovine serum albumin and then labeled with 0.1 mCi/ml [^32 P]orthophosphate (9000 Ci/mmol, PerkinElmer Life Sciences) for 2 h. For labeling with [^3H]myristic acid or ^3H-amino acids, cells were incubated overnight in medium containing 50 μCi/ml [^3H]myristic acid (49 Ci/mmol, PerkinElmer Life Sciences) or 0.2 mCi/ml [^3H]leucine (159 Ci/mmol, PerkinElmer Life Sciences) plus 0.4 mCi/ml [^3H]proline (100 Ci/mmol, PerkinElmer Life Sciences). Following labeling, cells were exposed to stimulatory reagents for 5 min. When an inhibitor was used, cells were preincubated with the inhibitor for 15 min prior to stimulation. At the end of the treatments, cells were lysed in a buffer containing 50 mM Tris-HCl (pH 7.5), 150 mM NaCl, 1 mM EDTA, 10% glycerol, 1% Nonidet P-40, 1 mM phenylmethylsulfonyl fluoride, 1 mM benzamidine, 10 μg/ml pepstatin A, and 10 μg/ml leupeptin. Trichloroacetic acid precipitation and scintillation counting may determine the radiolabeling efficiency in each culture. Immunoprecipitation of MARCKS protein was carried out according to the method of Spizz and Blackshear using cell lysates containing equal counts/min. Spizz et al., J. Biol. Chem. 271, 553-562 (1996). Precipitated proteins were resolved by 8% SDS-polyacrylamide gel electrophoresis and visualized by autoradiography. Anti-human MARCKS antibody (2F12) and nonimmune control antibody (6F6) were used in this assay.
Phosphorylation of MARCKS by PMA was attenuated by Calphostin C (500 nM). NHBE cells also contained substantial amounts of cGMP-dependent protein kinase type 1α (PKG-1α) activity, which was localized to the cytosolic fraction. […] In addition, the phosphorylation of MARCKS induced by PMA was reversed by incubation with 8-Br-cGMP (10 μM).

Experiment [1] has as its system MARCKS-related mucus secretion. The experiment in a line: Inhibition of MARCKS-related mucus (mucin) secretion, Table 1. Type of experiment: cell-based. Particulars: at 100 μM of test peptide.
The subject of the next experiment is U937 cells. The experiment in a line: Inhibition of lysozyme release from U937 cells. Type of experiment: cell-based, human. Particulars: for % Inhibition Lysozyme: at 50 μM of test peptide, 100 nM PMA; for Effect on PMA stimulated lysozyme secretion: pre-incubation with 50 to 100 μM (RNS: any time point or concentration tested). As to the method:
U937 is a monocyte-like human cell line which was purchased from American Type Culture Collection (ATCC) Rockville, Md. (catalog #CRL-15932). The cells were maintained in medium consisting of RPMI 1640 with glutamine supplemented with 10% heat inactivated fetal bovine serum (Gibco, Carlsbad, Calif.), 50 IU/mL, penicillin, 50 μg/mL streptomycin at 37° C. in an atmosphere containing 5% CO2. U937 cells were washed and resuspended at 2.5×10^6 cells/mL in phenol red free RPMI-1640 medium (Cellgro, Mediatech Inc.). Aliquots of cells in 15 mL plastic tubes were preincubated with indicated concentrations of test peptides (dissolved in PBS, pH 7.0) for 10 min at 37° C. The cells were then stimulated with 100 nM PMA for 1 hour. The cells were then centrifuged at 400×g for 5 min at 4° C. Lysozyme released from U937 cells was measured using spectrophotometric assay as described previously by Ralph et al., 1976. (Ralph P, Moore M A S, and Nilsson K. Lysozyme synthesis by established human and murine histocytic lymphoma cell lines. J. Exp. Med. 143:1528-33, 1976). Briefly. 100 μL of supernatants were placed in a 96-well microtiter plate and mixed with 100 μL of a Micrococcus lysodeikticus (Sigma-Aldrich) suspension (0.3 mg/mL in 0.1 M sodium phosphate buffer, pH 7.0), incubated for […] at room temperature and decrease in absorbance at 450 nm was measured. Chicken egg white lysozyme (EMD Biosciences) was used as a standard.

For another experiment, the system named is NK-92 cells. The experiment in a line: Inhibition of release of granzyme from NK-92 cells. Type of experiment: cell-based, human. Particulars: for % Inhibition Granzyme: at 50 μM of test peptide. Here is the method:
Measurement of NK cell granzyme secretion: Granzyme secreted from NK-92 cells was assayed by measuring hydrolysis of Nα-benzyloxycarbonyl-L-lysine thiobenzyl ester (BLT, EMD Bioscience, Inc.) essentially as described previously (Takayama H. Trenn G, Sitkovsky M V. A novel cytotoxic T lymphocyte activation assay. J. Immunol. Methods 104:183-190, 1987). An aliquot of 50 μl of supernatant was transferred to a 96-well plate, and 150 μl of 0.2 mM solution of BLT and 0.22 mM DTNB (Sigma-Aldrich Co.) in phosphate-buffered saline (PBS, pH 7.2) was added to the supernatant. Absorbance at 410 nm was measured after incubation for 30 min at room temperature. Results were expressed as percentage of total cellular enzyme content, using the amount obtained in the same number of triton X-100-lysed cells.
Because standard granzyme from NK-92 cells was not available to use for quantification, we measured both released and intracellular (from lysed cells) levels of granzyme, and expressed the released granzyme as a percentage of total (intracellular and released) for each. To measure intracellular granzyme from NK-92 cells, appropriate aliquots of 0.1% triton X-100-lysed cells were taken for quantification of the enzyme as described above. All data are expressed as percentage of control to minimize variability between cultures.

The mark [2] stands for this setting: inhibitor 500 nM + 100 nM PMA + 1 μM 8-Br-cGMP.

“Also recorded” adds a separate entry of the source. Residues, ends and D or L forms follow the SMILES beside them. *: point of attachment. Myristoyl = CCCCCCCCCCCCCC(=O)*

For `Nc1nc2c(nc(Br)n2[C@@H]2O[C@@H]3COP(=O)(O)O[C@H]3[C@H]2O)c(=O)[nH]1` [8-Br-cGMP], the “Effect on PMA-induced phosphorylation of MARCKS” value with MARCKS (8-Br-cGMP 10 μM (Example 6)) is recorded as “reversed”. The “MARCKS phosphorylation (band in immunoprecipitation assay)” value with MARCKS (reagent 1 μM alone) is listed as “faint band; also recorded: no band; also recorded: only a trace amount”.
For `CCCCCCCCCCCCCC(=O)NCC(=O)N[C@@H](C)C(=O)N[C@@H](CCC(N)=O)C(=O)N[C@@H](Cc1ccccc1)C(=O)N[C@@H](CO)C(=O)N[C@@H](CCCCN)C(=O)N[C@H](C(=O)N[C@@H](C)C(=O)N[C@@H](C)C(=O)N[C@@H](CCCCN)C(=O)NCC(=O)N[C@@H](CCC(=O)O)C(=O)N[C@@H](C)C(=O)N[C@@H](C)C(=O)N[C@@H](C)C(=O)N[C@@H](CCC(=O)O)C(=O)N[C@@H](CCCNC(=N)N)C(=O)N1CCC[C@H]1C(=O)NCC(=O)N[C@@H](CCC(=O)O)C(=O)N[C@@H](C)C(=O)N[C@@H](C)C(=O)N[C@H](C(=O)N[C@@H](C)C(=O)O)C(C)C)[C@@H](C)O` [MANS peptide] (Myristoyl-GAQFSKTAAKGEAAAERPGEAAVA-OH; C-terminus assumed), the “% Inhibition Mucin” value in experiment [1] turned out to be 81.5%. Also, in the experiment with U937 cells, the “% Inhibition Lysozyme” value was determined as 40.8% and the “Effect on PMA stimulated lysozyme secretion” value was “significantly attenuated”. For the same compound, the “Reduction in granzyme secretion relative to the PMA control reference” value in the experiment on NK-92 cells (100 μM peptide, 100 nM PMA 2 hour) is listed as “about 60%”. Besides, the “% Inhibition Granzyme” value in the experiment with NK-92 cells was found to be 76.0%.
For the compound `CCCCCCCCCCCCCC(=O)O[C@@H]1[C@@H](C)[C@@]2(O)[C@@H](C=C(CO)C[C@]3(O)C(=O)C(C)=C[C@@H]23)[C@@H]2C(C)(C)[C@]12OC(C)=O` [PMA, phorbol 12-myristate 13-acetate], the “Increase in MARCKS phosphorylation” value with MARCKS (PMA 100 nM) was 3-4 fold. The “MARCKS phosphorylation (band in immunoprecipitation assay)” value in the experiment on MARCKS (reagent 100 nM alone) is reported as “dark band; also recorded: very dark band; also recorded: showed a band; also recorded: strong band; also recorded: phosphorylated”. In the experiment with NK-92 cells (100 nM PMA, 2 hour incubation), the “Granzyme secretion relative to control as 100%” value is on record as “about 220%”.
For `CCCCCCCCCCCCCC(=O)NCC(=O)N[C@H](C(=O)N[C@@H](C)C(=O)N1CCC[C@H]1C(=O)N[C@@H](C)C(=O)N[C@@H](C)C(=O)N[C@@H](CCC(=O)O)C(=O)NCC(=O)N[C@@H](C)C(=O)NCC(=O)N[C@@H](C)C(=O)N[C@@H](CCC(=O)O)C(=O)N[C@H](C(=O)N[C@@H](CCCCN)C(=O)N[C@@H](CCCNC(=N)N)C(=O)N[C@@H](C)C(=O)N[C@@H](CO)C(=O)N[C@@H](C)C(=O)N[C@@H](CCC(=O)O)C(=O)N[C@@H](C)C(=O)N[C@@H](CCCCN)C(=O)N[C@@H](CCC(N)=O)C(=O)N[C@@H](C)C(=O)N[C@@H](Cc1ccccc1)C(=O)O)C(C)C)[C@@H](C)O` [RNS peptide, reference compound] (Myristoyl-GTAPAAEGAGAEVKRASAEAKQAF-OH; C-terminus assumed), the “% Inhibition Mucin” value in experiment [1] came to 0%. In addition, in the experiment on U937 cells, the “% Inhibition Lysozyme” value is recorded as 0% and the “Effect on PMA stimulated lysozyme secretion” value is listed as “did not affect”. Moreover, the “Effect on PMA-enhanced granzyme secretion” value with NK-92 cells (any of the time points or concentrations tested) is recorded as “did not affect”. For the same compound, in the experiment on NK-92 cells, the “% Inhibition Granzyme” value was 29.5%.
Consider `CCCCCCCCCCCCCC(=O)NCC(=O)N[C@@H](C)C(=O)N[C@@H](CCC(N)=O)C(=O)N[C@@H](Cc1ccccc1)C(=O)N[C@@H](CO)C(=O)N[C@@H](CCCCN)C(=O)N[C@H](C(=O)N[C@@H](C)C(=O)N[C@@H](C)C(=O)N[C@@H](CCCCN)C(=O)NCC(=O)N[C@@H](CCC(=O)O)C(=O)O)[C@@H](C)O` [SEQ ID NO: 13, N-myristoyl-GAQFSKTAAKGE] (Myristoyl-GAQFSKTAAKGE-OH; C-terminus assumed), for which the “% Inhibition Mucin” value in experiment [1] stood at 77%. Also, in the experiment on U937 cells, the “% Inhibition Lysozyme” value came to 85.2%.
On to `CCCCCCCCCCCCCC(=O)NCC(=O)N[C@@H](C)C(=O)N[C@@H](CCC(N)=O)C(=O)N[C@@H](Cc1ccccc1)C(=O)N[C@@H](CO)C(=O)N[C@@H](CCCCN)C(=O)N[C@H](C(=O)N[C@@H](C)C(=O)N[C@@H](C)C(=O)N[C@@H](CCCCN)C(=O)O)[C@@H](C)O` [SEQ ID NO: 15, N-myristoyl-GAQFSKTAAK] (Myristoyl-GAQFSKTAAK-OH; C-terminus assumed), for which, in experiment [1], the “% Inhibition Mucin” value is 67.5%. Besides, the “% Inhibition Lysozyme” value in the experiment with U937 cells stood at 56.6%.
As to `C[C@@](O)(/C=C/[C@H]1CC=CC(=O)O1)[C@@H](C[C@@H](O)\C=C/C=C\C=C\CO)OP(=O)(O)O` [fostriecin], the “Effect on PKG-induced MARCKS dephosphorylation” value in the experiment on MARCKS (1-500 nM, with PMA 100 nM + 8-Br-cGMP 1 μM) is “inhibited PKG-induced MARCKS dephosphorylation in a concentration-dependent manner”. Moreover, the “MARCKS phosphorylation (band in immunoprecipitation assay)” value with MARCKS (setting [2]) was “strong band”; in the experiment with MARCKS (inhibitor alone, concentration not stated (I-5C lane 9)) it was “only a trace amount”.
In the case of `C=C1[C@@H](O)[C@@H]2O[C@]3(CC[C@H](/C=C/[C@@H](C)[C@@H]4CC(C)=C[C@@]5(O[C@H](C[C@@](C)(O)C(=O)O)CC[C@H]5O)O4)O3)CC[C@H]2O[C@@H]1[C@@H](O)C[C@H](C)[C@H]1O[C@@]2(CCCCO2)CC[C@H]1C` [okadaic acid], the “Effect on reversal of MARCKS phosphorylation by 8-Br-cGMP (10 μM)” value in the experiment on MARCKS (500 nM (Example 6)) is listed as “inhibited this effect”. Further, the “MARCKS phosphorylation (band in immunoprecipitation assay)” value in the experiment with MARCKS (inhibitor 500 nM + 100 nM PMA) was “dark band”; in the experiment with MARCKS (setting [2]), “dark band”; with MARCKS (inhibitor 500 nM + 100 nM PMA + 1 μM 8-Br-cGMP, listed as Okadaic acid) it was “showed a band”; with MARCKS (inhibitor 500 nM + 100 nM PMA, listed as Okadaic acid), “showed a band”; in the experiment on MARCKS (inhibitor 500 nM + 1 μM 8-Br-cGMP) it was “medium dark band”; with MARCKS (inhibitor 500 nM + 1 μM 8-Br-cGMP, listed as Okadaic acid), “faint band”. The “MARCKS phosphorylation (band in immunoprecipitation assay)” value in the experiment on MARCKS (inhibitor 500 nM alone) is “faint band”.
